Entries after “also recorded” stand apart in the source; their conditions may differ.
Tests used:
[1] = tested on: nitric oxide (NO) production from RAW macrophages; assay: Griess assay for NO production by LPS-stimulated RAW macrophages; type: cell-based, murine; settings: LPS 1 μg/mL, 24 hours, n = 8, % of control
[2] = molecular target: T1, COX-1 (Ovis aries, UniProt P05979); assay: Colorimetric COX inhibitor screening assay, COX-1; type: biochemical, ovine; settings: data not shown
T1 construct: purchased Cayman Chemical Company
T1 sequence (P05979 25-600): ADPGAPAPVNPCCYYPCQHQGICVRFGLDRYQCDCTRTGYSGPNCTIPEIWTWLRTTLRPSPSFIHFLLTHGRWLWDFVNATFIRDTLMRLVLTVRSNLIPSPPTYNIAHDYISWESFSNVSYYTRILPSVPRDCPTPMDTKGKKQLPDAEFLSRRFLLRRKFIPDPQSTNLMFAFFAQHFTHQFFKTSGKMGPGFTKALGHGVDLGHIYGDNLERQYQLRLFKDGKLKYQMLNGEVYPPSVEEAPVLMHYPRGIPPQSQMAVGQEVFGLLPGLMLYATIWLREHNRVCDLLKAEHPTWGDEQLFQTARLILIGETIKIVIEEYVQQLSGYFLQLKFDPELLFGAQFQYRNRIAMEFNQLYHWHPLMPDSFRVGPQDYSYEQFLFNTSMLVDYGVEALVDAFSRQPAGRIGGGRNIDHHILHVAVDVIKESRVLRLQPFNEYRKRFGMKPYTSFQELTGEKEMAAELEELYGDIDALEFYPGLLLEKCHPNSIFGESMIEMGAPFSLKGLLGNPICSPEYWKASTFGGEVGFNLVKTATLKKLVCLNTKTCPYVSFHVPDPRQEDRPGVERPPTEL
Experimental: An ovine COX inhibitor screening assay (Cayman Chemical Company, Ann Arbor, Mich.) was used to measure inhibition of purified COX-1 and COX-2. This assay measures the peroxidase component of cyclooxygenases colorimetrically by monitoring the appearance of oxidized N,N,N′,N′-tetramethyl-p-phenylenediamine (TMPD) at 590 nm. Tablets of Vioxx (rofecoxib; Merck & Co., Inc., Whitehouse Station, N.J.) were ground and dissolved in methanol (1 mg/mL) to use as a positive control. AL-1, leukomisin, and austricin were also dissolved in methanol at 1 mg/mL. The assay was performed following manufacturer instructions. Vioxx, vehicle (100% initial activity), or treatments were added to a 96-well plate along with 180 μL assay mixture provided by the manufacturer containing 150 μL assay buffer, 10 μL heme, and 10 μL enzyme (COX-1 or COX-2). A background correction row received no enzyme and 10 μL additional assay buffer. After 5 min incubation at room temp, 20 μL of a colorimetric substrate solution containing TMPD and 20 μL arachadonic acid diluted in assay buffer were added to the plate. The plate was incubated for 5 min and the absorbance was read at 590 nm using a microplate reader (Molecular Devices, Sunnyvale, Calif.). To calculate percent inhibition, average absorbance was calculated for each sample (n=3). The background blank well absorbance was subtracted from each sample. […]

| SMILES | NO production (relative to control), mean ± SE ([1]; 2 μg/ml) | NO production (relative to control), mean ± SE ([1]; 4 μg/ml) | COX-1 enzyme inhibition (in words) [2] |
| --- | --- | --- | --- |
| CC1=CC(=O)C2=C(C)CC[C@@H]3[C@H](OC(=O)[C@H]3C)[C@@H]12 [leukomisin] | 100 ± 2% | 98 ± 1% | did not inhibit COX-1 activity; also recorded: did not significantly inhibit |
| CC1=CC(=O)C2=C(C)C[C@H](O)[C@@H]3[C@H](OC(=O)[C@H]3C)[C@@H]12 (single isomer, unassigned) [austricin] | 100 ± 1% | 100 ± 1% | did not inhibit COX-1; also recorded: did not significantly inhibit |

Reference: patent publication US20080145465A1, “Sesquiterpene lactone extract from artemisia leucodes for reducing inflammation and down-regulating pro-inflammatory gene expression” (priority 2006, published 2008)
